Laboratory results from PubChem BioAssay AID2060907 (Molecular Pharmacology Branch, DTP, NCI, 2025).

Tested on: 388556-164-R-J1-PDC complex spheroid viability
Assay: Anticancer human tumor 388556-164-R-J1-PDC patient-derived colon adenocarcinoma cell line growth inhibition [RAS]
Conditions: for IC50: curve of first compound; for viability, T/C: stronger effect = lower value
Description: RAS pathway inhibitors in Combinations in Complex Spheroids
A high-throughput screen of multi-cell type tumor spheroids was designed to identify active combinations of RAS pathway inhibitors and targeted small molecules. Complex spheroids include a stromal component modeled by human endothelial cells (HUVEC) and fibroblasts modeled by human mesenchymal stem cells (MSCs). The concentration ranges selected for each drug and investigational agent were based upon clinically achievable concentrations if the clinical Cmax of the agent was known.
Compounds. The drugs and investigational agents: abemaciclib (NSC768073), cobimetinib (NSC768068), divarasib (GDC6063, NSC841802), docetaxel (NSC628503), GDC-1971 (RLY-1971, NSC841576), gemcitabine (NSC613327), inavolisib (NSC800729), ipatasertib (NSC767898), KB-0742 (NSC834161), MRTX-1133 (NSC836407), osimertinib (NSC779217), RMC-4630 (NSC839698), RMC-6236 (NSC851965), RMC-6291 (NSC852671), Ro-3306 (NSC812927), sapanisertib (NSC764658), SN-38 (NSC673596), staurosporine (NSC755774), SY5609 (NSC837396), and tovorafenib (DAY101, NSC766906), were obtained from the National Cancer Institute (NCI) Developmental Therapeutics Program Chemical Repository. The FDA-approved anticancer drug set is available from the NCI Developmental Therapeutics Program. […] The stock solutions were prepared in dimethyl sulfoxide (DMSO, Sigma-Aldrich, St. Louis, MO, cat. D2650) at 800-fold the tested concentration and stored at -70 degrees C prior to their use. All drugs and investigational agents were tested over a range starting from a high concentration at or near the clinical Cmax and decreasing in half-log increments. If the clinical Cmax for an agent had not been determined, the highest concentration tested was 10 microM.
Cell Culture. All cells were maintained in an incubator at 37 degrees C and 5% CO2 with 95% humidity. The PDC lines were cultured according to standard operating procedures established by the NCI PDMR. All PDCs were thawed and cultured in Matrigel-coated flasks prepared with a working solution of 1X Ham's F-12 nutrient mix, without supplementation (Invitrogen, Waltham, MA, cat. 11765054), 100 U/mL penicillin-streptomycin (Invitrogen, cat. 15140122), and 2.5% Matrigel (Corning Inc., Corning, NY, cat. 354248) for the first three passages. The 362531-283-R-J2-PDC and 782815-120-R-J1-PDC lines were cultured in 6C/Colon 1B media, which includes advanced DMEM/F-12 (Thermo Fisher Scientific, cat. 12634028), 10 mM HEPES (Thermo Fisher Scientific, cat. 15630080), 1X GlutaMAX supplement (Thermo Fisher Scientific, cat. 35050061), 0.1 mg/mL primocin (InvivoGen, San Diego, CA, cat. ant-pm-2), 10% defined fetal bovine serum, heat inactivated (HyClone Laboratories Inc., Logan, UT, cat. SH30070.03HI), 50% L-WRN conditioned media (ATCC, cat. CRL-3276), 1.25 mM N-Acetyl-L-cysteine (Sigma-Aldrich, cat. A9165), 10 mM nicotinamide (Sigma-Aldrich, cat. N0636), 1X B-27 supplement (Thermo Fisher Scientific, cat. 17504044), 1X N-2 supplement (Thermo Fisher Scientific, cat. 17502048), 50 ng/mL human EGF (Thermo Fisher Scientific, cat. PHG0311), and 10 microM Y-27632 dihydrochloride (Tocris Bioscience, cat. 1254). The K12877-001-R-J1-PDC line was cultured in 6I media, which includes all 6C/Colon 1B media plus 10 ng/mL human FGF-10 (PeproTech, cat. 100-26), 1 ng/mL human FGF-2 (PeproTech, cat. 100-18B), 1 µM prostaglandin E2 (Tocris Bioscience, cat. 2296), […] hydrocortisone (Sigma-Aldrich, cat. H4001), and […] bovine insulin (Sigma-Aldrich, cat. I6634). The K86415-001-R-J1-PDC line was cultured in 6D media, which includes all 6C/Colon 1B media components minus the L-WRN conditioned media. The 485176-168-R4-J1-PDC was cultured in PANC media, which includes all 6C/Colon 1B media plus 100 ng/mL human FGF-10 (PeproTech, cat. 100-26), 500 nM SB-431542 (Selleckchem, cat. S1067), and 10 nM gastrin (Tocris Bioscience, cat. 3006). […]
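Further: spheroids exposed to compound for 7 days before readout.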
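Wherever viability, T/C is given: 100% = DMSO vehicle control luminescence.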

Compound CCC(CC)c1cc(NC2CCC(N)C2)n2nccc2n1 (centres undefined) + CCn1c(-c2cccnc2C(C)OC)c2c3cc(ccc31)N1CCOC(CC(NC(=O)C(C(C)C)N(C)C(=O)C3(F)CCN(C(=O)C#CC(C)(C)N(C)C)CC3)C(=O)N3CCCC(N3)C(=O)OCC(C)(C)C2)C1 has an IC50 (second compound 0.000949 µM) of 4.85 µM, an IC50 (second compound 0.003 µM) of 4.46 µM and an IC50 (second compound 0.00949 µM) of 5.17 µM. It also gave an IC50 (second compound 0.03 µM) of 4.12 µM, an IC50 (second compound 0.0949 µM) of 4.76 µM and an IC50 (second compound 0.3 µM) of 2.94 µM. It also gave a viability, T/C (second compound 0.000949 µM, first compound 0.0316 µM) of 101%, a viability, T/C (second compound 0.000949 µM, first compound 0.1 µM) of 95.6% and a viability, T/C (second compound 0.000949 µM, first compound 0.316 µM) of 104%. For the same compound, the viability, T/C (second compound 0.000949 µM, first compound 1 µM) was 106%, the viability, T/C (second compound 0.000949 µM, first compound 3.16 µM) was 60.2% and the viability, T/C (second compound 0.000949 µM, first compound 10 µM) was 32.8%. It also gave a viability, T/C (second compound 0.003 µM, first compound 0.0316 µM) of 113%, a viability, T/C (second compound 0.003 µM, first compound 0.1 µM) of 105% and a viability, T/C (second compound 0.003 µM, first compound 0.316 µM) of 100%. It also gave a viability, T/C (second compound 0.003 µM, first compound 1 µM) of 104%, a viability, T/C (second compound 0.003 µM, first compound 3.16 µM) of 57.6% and a viability, T/C (second compound 0.003 µM, first compound 10 µM) of 31.9%. It also gave a viability, T/C (second compound 0.00949 µM, first compound 0.0316 µM) of 112%, a viability, T/C (second compound 0.00949 µM, first compound 0.1 µM) of 106% and a viability, T/C (second compound 0.00949 µM, first compound 0.316 µM) of 102%. The viability, T/C (second compound 0.00949 µM, first compound 1 µM) was 93.2%, the viability, T/C (second compound 0.00949 µM, first compound 3.16 µM) was 64% and the viability, T/C (second compound 0.00949 µM, first compound 10 µM) was 30.4%. For the same compound, the viability, T/C (second compound 0.03 µM, first compound 0.0316 µM) was 105%, the viability, T/C (second compound 0.03 µM, first compound 0.1 µM) was 102% and the viability, T/C (second compound 0.03 µM, first compound 0.316 µM) was 107%. For the same compound, the viability, T/C (second compound 0.03 µM, first compound 1 µM) was 106%, the viability, T/C (second compound 0.03 µM, first compound 3.16 µM) was 54.3% and the viability, T/C (second compound 0.03 µM, first compound 10 µM) was 35.6%. For the same compound, the viability, T/C (second compound 0.0949 µM, first compound 0.0316 µM) was 110%, the viability, T/C (second compound 0.0949 µM, first compound 0.1 µM) was 87.3% and the viability, T/C (second compound 0.0949 µM, first compound 0.316 µM) was 100%. The viability, T/C (second compound 0.0949 µM, first compound 1 µM) was 103%, the viability, T/C (second compound 0.0949 µM, first compound 3.16 µM) was 58.3% and the viability, T/C (second compound 0.0949 µM, first compound 10 µM) was 34.8%. It also gave a viability, T/C (second compound 0.3 µM, first compound 0.0316 µM) of 101%, a viability, T/C (second compound 0.3 µM, first compound 0.1 µM) of 89.9% and a viability, T/C (second compound 0.3 µM, first compound 0.316 µM) of 92.6%. The viability, T/C (second compound 0.3 µM, first compound 1 µM) was 91.6%, the viability, T/C (second compound 0.3 µM, first compound 3.16 µM) was 47.2% and the viability, T/C (second compound 0.3 µM, first compound 10 µM) was 34.4%.
CC1(C)CCC(Nc2ncc(C(F)(F)F)c(-c3c[nH]c4c(P(C)(C)=O)c(C#N)ccc34)n2)CN1 (centres undefined) + C#Cc1c(F)ccc2cc(O)cc(-c3ncc4c(N5CC6CCC(C5)N6)nc(OCC56CCCN5CC(F)C6)nc4c3F)c12 was tested, and the IC50 (second compound 0.0316 µM) was over 0.3 µM, the IC50 (second compound 0.1 µM) was over 0.3 µM and the IC50 (second compound 0.316 µM) was over 0.3 µM. The IC50 (second compound 1 µM) was over 0.3 µM, the IC50 (second compound 3.16 µM) was over 0.3 µM and the IC50 (second compound 10 µM) was over 0.3 µM. It also gave a viability, T/C (second compound 0.0316 µM, first compound 0.000949 µM) of 111%, a viability, T/C (second compound 0.0316 µM, first compound 0.003 µM) of 110% and a viability, T/C (second compound 0.0316 µM, first compound 0.00949 µM) of 112%. It also gave a viability, T/C (second compound 0.0316 µM, first compound 0.03 µM) of 94.9%, a viability, T/C (second compound 0.0316 µM, first compound 0.0949 µM) of 118% and a viability, T/C (second compound 0.0316 µM, first compound 0.3 µM) of 97.3%. It also gave a viability, T/C (second compound 0.1 µM, first compound 0.000949 µM) of 110%, a viability, T/C (second compound 0.1 µM, first compound 0.003 µM) of 112% and a viability, T/C (second compound 0.1 µM, first compound 0.00949 µM) of 110%. The viability, T/C (second compound 0.1 µM, first compound 0.03 µM) was 101%, the viability, T/C (second compound 0.1 µM, first compound 0.0949 µM) was 116% and the viability, T/C (second compound 0.1 µM, first compound 0.3 µM) was 92.1%. The viability, T/C (second compound 0.316 µM, first compound 0.000949 µM) was 100%, the viability, T/C (second compound 0.316 µM, first compound 0.003 µM) was 100% and the viability, T/C (second compound 0.316 µM, first compound 0.00949 µM) was 91.1%. The viability, T/C (second compound 0.316 µM, first compound 0.03 µM) was 114%, the viability, T/C (second compound 0.316 µM, first compound 0.0949 µM) was 115% and the viability, T/C (second compound 0.316 µM, first compound 0.3 µM) was 92.9%. It also gave a viability, T/C (second compound 1 µM, first compound 0.000949 µM) of 97.1%, a viability, T/C (second compound 1 µM, first compound 0.003 µM) of 92% and a viability, T/C (second compound 1 µM, first compound 0.00949 µM) of 80.7%. The viability, T/C (second compound 1 µM, first compound 0.03 µM) was 96.7%, the viability, T/C (second compound 1 µM, first compound 0.0949 µM) was 100% and the viability, T/C (second compound 1 µM, first compound 0.3 µM) was 84.2%. For the same compound, the viability, T/C (second compound 3.16 µM, first compound 0.000949 µM) was 83%, the viability, T/C (second compound 3.16 µM, first compound 0.003 µM) was 78.2% and the viability, T/C (second compound 3.16 µM, first compound 0.00949 µM) was 99.8%. It also gave a viability, T/C (second compound 3.16 µM, first compound 0.03 µM) of 99.5%, a viability, T/C (second compound 3.16 µM, first compound 0.0949 µM) of 96.3% and a viability, T/C (second compound 3.16 µM, first compound 0.3 µM) of 77.8%. It also gave a viability, T/C (second compound 10 µM, first compound 0.000949 µM) of 70.7%, a viability, T/C (second compound 10 µM, first compound 0.003 µM) of 65.1% and a viability, T/C (second compound 10 µM, first compound 0.00949 µM) of 76.6%. For the same compound, the viability, T/C (second compound 10 µM, first compound 0.03 µM) was 81%, the viability, T/C (second compound 10 µM, first compound 0.0949 µM) was 62.7% and the viability, T/C (second compound 10 µM, first compound 0.3 µM) was 63.4%.
